System: not given
Experiment: not given
Conditions: not given

Q: With `Cc1ccc(COc2ccc(C=C3SC(=S)N(CC(=O)O)C3=O)c(OCc3ccc(C)cc3)c2)cc1` [Compound 2, 5-[(2,4-Bis-(4-methylphenylmethoxy)phenyl)methylene]-4-oxo-2-thioxo-3-thiazolidineacetic acid] as the molecule, how does the melting point read?
A: 211 °C

Target: human urokinase (uPA) binding to the specific receptor uPAR (Homo sapiens, UniProt Q03405)
Experiment: ELISA test of inhibition of uPA binding to the receptor uPAR
Conditions: compound concentration 1 μg/ml, 96-well microtitre plates
Experimental: The compound of the invention were tested (ELISA test) as human urokinase (uPA) inhibitors, which bind to the specific receptor uPAR mAk (BIO-R4), in accordance with the procedure described by Rettenberger et al. In Biol. Chem. Hoppe Seyler 376, 587-94 (1995). The assays are carried out in microtitre plates (96 wells).

Chain of human urokinase (uPA) binding to the specific receptor uPAR (Q03405 23-305 limits assumed): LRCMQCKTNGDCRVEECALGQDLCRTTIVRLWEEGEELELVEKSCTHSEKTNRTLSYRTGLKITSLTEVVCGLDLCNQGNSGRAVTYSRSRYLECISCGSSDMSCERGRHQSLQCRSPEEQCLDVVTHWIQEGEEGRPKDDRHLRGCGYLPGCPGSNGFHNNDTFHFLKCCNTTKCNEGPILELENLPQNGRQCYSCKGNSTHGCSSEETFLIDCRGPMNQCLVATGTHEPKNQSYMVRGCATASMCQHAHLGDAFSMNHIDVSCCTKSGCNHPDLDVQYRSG

Q: Which inhibition at 1 µg/mL does the source give for `Cc1ccc(COc2ccc(C=C3SC(=S)N(CC(=O)O)C3=O)c(OCc3ccc(C)cc3)c2)cc1` [Compound 2, 5-[(2,4-Bis-(4-methylphenylmethoxy)phenyl)methylene]-4-oxo-2-thioxo-3-thiazolidineacetic acid] here?
A: 48%

Q: Which inhibition at 1 µg/mL does the source give for `Cc1ccc(COc2ccc(OCc3ccc(C)cc3)c(C=C3SC(=S)N(CC(=O)O)C3=O)c2)cc1` [Example 2, 5-[(2,5-Bis-(4-methylphenylmethoxy)phenyl)methylene]-4-oxo-2-thioxo-3-thiazolidineacetic Acid] here?
A: 68%

Q: With `O=C(O)CN1C(=O)C(=Cc2cc(OCCCc3ccc(Cl)cc3)ccc2OCCCc2ccc(Cl)cc2)SC1=S` [Example 6, 5-[(2,5-Bis-(3-(4-chlorophenyl)propoxy)phenyl)methylene]-4-oxo-2-thioxo-3-thiazolidine-acetic Acid] as the molecule, how does the inhibition at 1 µg/mL read?
A: 57%

Q: With `O=C(O)CN1C(=O)C(=Cc2cc(OCCCc3ccccc3)ccc2OCc2ccccc2)SC1=S` [Example 13, 5-[(2-Phenylmethoxy-5-(3-phenylpropoxy)phenyl)methylene]-4-oxo-2-thioxo-3-thiazolidineacetic Acid] as the molecule, how does the inhibition at 1 µg/mL read?
A: 53%

Q: For `O=C(O)CN1C(=O)C(=Cc2cc(OCCCc3ccccc3)ccc2OCc2cccs2)SC1=S` [Example 15, 5-[(2-(2-Thienylmethoxy)-5-(3-phenylpropoxy)phenyl)methylene]-4-oxo-2-thioxo-3-thiazolidineacetic Acid], which inhibition at 1 µg/mL is on record?
A: 63%

Q: Which “% Inhibition at 1 μg/ml concentration” value does the source give for `Cc1ccc(COc2ccc(C=C3SC(=S)N(C(C(=O)O)c4ccccc4)C3=O)c(OCc3ccc(C)cc3)c2)cc1` (stereo not drawn) [Example 22, 2-{5-[(2,4-Bis-(4-methylphenylmethoxy)phenyl)methylene]-4-oxo-2-thioxo-3-thiazolidine}-2-phenylacetic Acid] here?
A: 60%

Q: For `Cc1ccc(COc2ccc(C=C3SC(=S)N(C(Cc4ccccc4)C(=O)O)C3=O)c(OCc3ccc(C)cc3)c2)cc1` (stereo not drawn) [Example 23, 2-{5-[(2,4-Bis-(4-methylphenylmethoxy)phenyl)methylene]-4-oxo-2-thioxo-3-thiazolidine}-3-phenypropionic Acid], which “% Inhibition at 1 μg/ml concentration” value is on record?
A: 54%

Q: Which “% Inhibition at 1 μg/ml concentration” value does the source give for `Cc1ccc(COc2ccc(C=C3SC(=S)N(C(C(=O)O)c4ccc(Cl)cc4)C3=O)c(OCc3ccc(C)cc3)c2)cc1` (stereo not drawn) [Example 24, 2-{5-[(2,4-Bis-(4-methylphenylmethoxy)phenyl)methylene]-4-oxo-2-thioxo-3-thiazolidine}-2-(4-chlorophenyl)acetic Acid] here?
A: 69%

Source: patent publication US6506755B2, “Thiazolidinecarboxyl acids” (Hoffmann-La Roche Inc., priority 2000, dated 2003)
